Assay: method code SF-GLC, from DOI: 10.1016/0045-6535(89)90321-4

logP | SMILES
6.25 | Clc1ccc2c(oc3ccc(Cl)c(Cl)c32)c1Cl
6.53 | Clc1cc2c(oc3c(Cl)ccc(Cl)c32)c(Cl)c1Cl
6.1 | Clc1ccc2c(c1)Oc1cc(Cl)c(Cl)c(Cl)c1O2
6.1 | Clc1cc(Cl)c2c(c1Cl)Oc1c(Cl)cccc1O2
6.17 | Clc1cc(Cl)c2oc3c(Cl)cc(Cl)cc3c2c1
6.34 | Clc1cc(Cl)c2c(oc3c(Cl)ccc(Cl)c32)c1Cl
6.13 | Clc1ccc2oc3c(Cl)c(Cl)cc(Cl)c3c2c1
6.23 | Clc1ccc2c(c1)oc1c(Cl)c(Cl)cc(Cl)c12
6.23 | Clc1cc2oc3ccc(Cl)c(Cl)c3c2cc1Cl
5.6 | Clc1ccc(Cl)c2c1oc1c(Cl)ccc(Cl)c12
6.33 | Clc1cc(Cl)c2c(c1)oc1c(Cl)c(Cl)cc(Cl)c12
6.86 | Clc1cc2c(c(Cl)c1Cl)Oc1cccc(Cl)c1O2
6.59 | Clc1cc(Cl)c2oc3c(Cl)ccc(Cl)c3c2c1Cl
6.33 | Clc1cc(Cl)c2oc3cc(Cl)c(Cl)c(Cl)c3c2c1
6.1 | Clc1cc(Cl)c2c(c1Cl)Oc1cccc(Cl)c1O2
6.15 | Clc1ccc2oc3cc(Cl)c(Cl)c(Cl)c3c2c1
6.31 | Clc1cc(Cl)c2c(oc3c(Cl)cccc32)c1Cl
6.19 | Clc1ccc2c(oc3c(Cl)c(Cl)cc(Cl)c32)c1Cl

logP | SMILES
6.34 | Clc1cc(Cl)c2c(c1)oc1cc(Cl)c(Cl)cc12
6.42 | Clc1cc2c(oc3ccc(Cl)c(Cl)c32)c(Cl)c1Cl
6.11 | Clc1cc2c(oc3c(Cl)cccc32)c(Cl)c1Cl
6.24 | Clc1cc(Cl)c2oc3c(Cl)c(Cl)cc(Cl)c3c2c1
6.17 | Clc1cc2c(oc3cccc(Cl)c32)c(Cl)c1Cl
5.89 | Clc1cc(Cl)c2c(oc3cccc(Cl)c32)c1Cl
6.15 | Clc1ccc2c(oc3c(Cl)ccc(Cl)c32)c1Cl
6.47 | Clc1cc2c(oc3c(Cl)c(Cl)ccc32)c(Cl)c1Cl
6.25 | Clc1cc(Cl)c2c(c1)oc1ccc(Cl)c(Cl)c12
6.25 | Clc1cc(Cl)c2oc3c(Cl)c(Cl)ccc3c2c1
6.51 | Clc1cc(Cl)c2c(oc3ccc(Cl)c(Cl)c32)c1Cl
6.53 | Clc1ccc2c(c1)oc1c(Cl)c(Cl)c(Cl)c(Cl)c12
6.34 | Clc1cc(Cl)c2oc3c(Cl)cc(Cl)c(Cl)c3c2c1
6.1 | Clc1ccc2c(c1)Oc1c(cc(Cl)c(Cl)c1Cl)O2
6.31 | Clc1cc2oc3c(Cl)c(Cl)ccc3c2cc1Cl
6.06 | Clc1cc2oc3cccc(Cl)c3c2c(Cl)c1Cl
6.59 | Clc1cc(Cl)c2oc3c(Cl)c(Cl)c(Cl)cc3c2c1
6.26 | Clc1cc2oc3c(Cl)c(Cl)ccc3c2c(Cl)c1Cl

More lines, now with the values behind:

SMILES | logP
Clc1cc(Cl)c2c(c1Cl)Oc1c(Cl)c(Cl)cc(Cl)c1O2 | 6.85
Clc1cc2c(cc1Cl)Oc1c(ccc(Cl)c1Cl)O2 | 6.38
Clc1cc(Cl)c2oc3cc(Cl)c(Cl)cc3c2c1 | 6.73
Clc1cc(Cl)c2c(c1Cl)Oc1c(Cl)cc(Cl)c(Cl)c1O2 | 6.85
Clc1cc(Cl)c2c(c1)oc1c(Cl)cc(Cl)cc12 | 6.37
Clc1cc(Cl)c2c(c1)Oc1c(Cl)ccc(Cl)c1O2 | 6.25
Clc1ccc2oc3c(Cl)cc(Cl)c(Cl)c3c2c1 | 6.31
Clc1ccc(Cl)c2c1Oc1c(Cl)ccc(Cl)c1O2 | 6.38
Clc1cc(Cl)c2c(c1)Oc1cc(Cl)c(Cl)cc1O2 | 6.3
Clc1cc(Cl)c2c(c1)oc1c(Cl)cc(Cl)c(Cl)c12 | 6.19
Clc1cc(Cl)c2c(c1)Oc1ccc(Cl)c(Cl)c1O2 | 6.86
Clc1cc2c(c(Cl)c1Cl)Oc1c(Cl)cc(Cl)c(Cl)c1O2 | 7.59
Clc1c(Cl)c(Cl)c2c(oc3ccccc32)c1Cl | 6.17
Clc1ccc2c(c1)Oc1c(Cl)c(Cl)c(Cl)c(Cl)c1O2 | 6.6
Clc1ccc2c(c1)Oc1c(Cl)cc(Cl)c(Cl)c1O2 | 6.25
Clc1cccc2c1Oc1c(Cl)c(Cl)c(Cl)c(Cl)c1O2 | 6.3
Clc1ccc2c(c1)oc1c(Cl)c(Cl)c(Cl)cc12 | 6.06
Clc1cc(Cl)c2c(c1)Oc1c(Cl)cc(Cl)cc1O2 | 6.29
Clc1ccc2c(c1)Oc1c(Cl)c(Cl)cc(Cl)c1O2 | 6.25
Clc1cc(Cl)c2c(c1)Oc1cc(Cl)cc(Cl)c1O2 | 6.39

SMILES | logP
Clc1cc(Cl)c2c(c1)oc1cc(Cl)cc(Cl)c12 | 6.34
Clc1cc2c(cc1Cl)Oc1c(cc(Cl)c(Cl)c1Cl)O2 | 6.64
Clc1ccc2oc3c(Cl)c(Cl)c(Cl)c(Cl)c3c2c1 | 6.79
Clc1cc2c(c(Cl)c1Cl)Oc1c(Cl)ccc(Cl)c1O2 | 6.24
Clc1cc2c(oc3c(Cl)c(Cl)c(Cl)c(Cl)c32)c(Cl)c1Cl | 7.92
Clc1cc2oc3c(Cl)cccc3c2c(Cl)c1Cl | 6.15
Clc1cc2c(c(Cl)c1Cl)Oc1c(Cl)c(Cl)cc(Cl)c1O2 | 7.59
Clc1ccc2c(oc3c(Cl)cc(Cl)c(Cl)c32)c1Cl | 6.27
Clc1cc2oc3c(Cl)cc(Cl)c(Cl)c3c2cc1Cl | 6.26
Clc1cc(Cl)c2c(c1)Oc1c(Cl)c(Cl)c(Cl)c(Cl)c1O2 | 6.85
Clc1cc(Cl)c2c(c1Cl)Oc1c(Cl)ccc(Cl)c1O2 | 6.6
Clc1cc2c(c(Cl)c1Cl)Oc1ccc(Cl)c(Cl)c1O2 | 6.74
Clc1cc(Cl)c2c(c1)Oc1c(ccc(Cl)c1Cl)O2 | 6.43
Clc1cc2c(cc1Cl)Oc1c(Cl)c(Cl)cc(Cl)c1O2 | 6.2
Clc1cc2c(cc1Cl)Oc1c(Cl)ccc(Cl)c1O2 | 6.39
Clc1cc(Cl)c2c(c1)Oc1cc(Cl)c(Cl)c(Cl)c1O2 | 6.4
Clc1cc2c(c(Cl)c1Cl)Oc1c(Cl)cccc1O2 | 6.39
Clc1cc(Cl)c2c(c1)Oc1c(cc(Cl)c(Cl)c1Cl)O2 | 6.53
Clc1cc2c(cc1Cl)Oc1cc(Cl)c(Cl)cc1O2 | 6.42
